In US8158621B2, “Methods of treating or preventing autoimmune diseases with 2,4-pyrimidinediamine compounds” (Rigel Pharmaceuticals, Inc., priority 2002, dated 2012):

Columns and labels:
[1] = tested on: Syk kinase; experiment: Phosphorylation of proteins in the FcεRI cascade in activated CHMC cells; format: cell-based, human; settings: activated CHMC cells (FIG. 10)
Protocol: Following electrophoresis, the phosphorylation of the proteins indicated in FIGS. 7, 10 and 11A-D were assessed by immunoblot. Antibodies were purchased from Cell Signaling Technology, Beverley, Mass.

[2] = tested on: cultured human mast cells (CHMC); experiment: CHMC low cell density IgE activation: tryptase assay; format: cell-based
Outline: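 CHMC resuspended in pre-warmed MT buffer at 1000-1500 cells/well (donor-dependent) and preincubated 1 hr at 37° C, then stimulated with anti-IgE for 30 min at 37° C; unstimulated wells got MT alone. Supernatant tryptase activity read with tryptase substrate after 30 min at room temperature.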

[3] = biological target: T1, Syk kinase (Homo sapiens, UniProt P43405); experiment: Syk kinase biochemical fluorescence polarization assay; settings: isolated Syk kinase, fluorescence polarization, 4 uM ATP
T1 construct: purchased Upstate, Lake Placid NY

[4] = tested on: cultured human mast cells (CHMC); experiment: CHMC high cell density IgE activation: TNFalpha; format: cell-based; settings: read-out: CHMC high density TNF-alpha
Outline: (§1)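 IgE-sensitized CHMC at 1-2 ×10^6 cells/ml were preincubated with compound (0.5% DMSO) for 1 h at 37 °C, then stimulated with anti-IgE for 1 h before supernatant collection. Pellets were reincubated with compound for 7 h at 37 °C, and mediators were measured by ELISA on diluted supernatants.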

[5] = tested on: cultured human mast cells (CHMC); experiment: CHMC high cell density IgE activation: hexos; format: cell-based
[6] = tested on: cultured human mast cells (CHMC); experiment: CHMC high cell density IgE activation: histamine; format: cell-based
Outline: as §1

[7] = tested on: Jurkat cells; experiment: Jurkat toxicity, Cell Titer Glo assay; format: cell-based, human
Protocol: Seed 50 μl cells (1×10^6/ml) into each well containing 50 μl compound. […] Shake plates for 1 minute to mix cells and compound. Incubate plates at 37° C. […] Next day, harvest 50 μl cells from each well, add to 50 μl Cell Titer Glo reagent ([…]). Shake plates for 1 minute. Read on luminometer.

[8] = tested on: cultured human mast cells (CHMC); experiment: CHMC high cell density IgE activation: tryptase; format: cell-based
[9] = tested on: cultured human mast cells (CHMC); experiment: CHMC low cell density ionomycin activation: tryptase assay; format: cell-based
[10] = tested on: cultured human mast cells (CHMC); experiment: CHMC high cell density IgE activation: IL-13; format: cell-based
Protocol: After sensitizing, cells are counted, pelleted (1000 rpm, 5-10 minutes), and resuspended at 1-2 ×10^6 cells/ml in MT buffer. Add 100 ul of cell suspension to each well and 100 ul of compound dilutions. The final vehicle concentration is 0.5% DMSO. Incubate at 37° C. (5% CO2) for 1 hour. After 1 hour of compound treatment, stimulate cells with 6× anti-IgE. Mix wells with the cells and allow plates to incubate at 37° C. (5% CO2) for one hour. After 1 hour incubation, pellet cells (10 minutes, 1000 RPM) and collect 200 ul per well of the supernatant, being careful not to disturb pellet. Place the supernatant plate on ice. During the 7-hour step (see next) perform tryptase assay on supernatant that had been diluted 1:500. Resuspend cell pellet in 240 ul of CM media containing 0.5% DMSO and corresponding concentration of compound. Incubate CHMC cells for 7 hours at 37° C. (5% CO2). After incubation, pellet cells (1000 RPM, 10 minutes) and collect 225 ul per well and place in −80° C. until ready to perform ELISAS. ELISAS are performed on appropriately diluted samples (determined empirically for each donor cell population so that the sample measurement falls within the standard curve) following the supplier's instructions.

[11] = tested on: Human Jurkat T-cells (clone N); experiment: Jurkat T-cell activation (anti-TCR, CD69 upregulation); format: cell-based
Outline: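 Jurkat cells in RPMI + 5% FBS preincubated with compound 1 h at 37 °C, then stimulated with anti-TCR C305 at 500 ng/ml for 20 h. CD69 surface expression stained with anti-CD69-APC and read by flow cytometry; IC50 versus solvent-only control.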

[12] = tested on: B-cell line BJAB; experiment: BJAB toxicity, Cell Titer Glo assay; format: cell-based
Protocol: Seed 50 μl cells (1×10^6/ml) into each well containing 50 μl compound. The final vehicle concentration is 0.5% DMSO, 1.5% MeOH. Shake plates for 1 minute to mix cells and compound. Incubate plates at 37° C. (5% CO2) for 18 hours. Next day, harvest 50 μl cells from each well, add to 50 μl Cell Titer Glo reagent ([…]). Shake plates for 1 minute. Read on luminometer.

[13] = tested on: cultured human mast cells (CHMC); experiment: CHMC high cell density IgE activation: LTC4; format: cell-based
Outline: as §1

[14] = tested on: basophil cells (human peripheral blood); experiment: Basophil anti-IgE activation: histamine release assay; format: cell-based; settings: basophils, anti-IgE activation, histamine release; read-out: Basophils anti-IgE Histamine IC50
Protocol: (§2) The basophil activation assay was carried out using whole human peripheral blood from donors allergic to dust mites with the majority of the red blood cells removed by dextran sedimentation. Human peripheral blood was mixed 1:1 with 3% dextran T500 and RBCs were allowed to settle for 20-25min. The upper fraction was diluted with 3 volumes of D-PBS and cells were spun down for 10 min at 1500 rpm, RT. Supernatant was aspirated and cells were washed in an equal volume MT-buffer. Finally, cells were resuspended in MT-buffer containing 0.5% DMSO in the original blood volume. 80 uL cells were mixed with 20 uL compound in the presence of 0.5% DMSO, in triplicate, in a V-bottom 96-well tissue culture plate. A dose range of 8 compound concentrations was tested resulting in a 10-point dose response curve including maximum (stimulated) and minimum (unstimulated) response. […] The cells were stimulated for 30 minutes at 37° C., 5% CO2. The plate was spun for 10 min at 1500 rpm at room temperature and 80 uL the supernatant was harvested for histamine content analysis using the histamine ELISA kit supplied by Immunotech. The ELISA was performed according to supplier's instructions.

[15] = tested on: basophil cells (human peripheral blood); experiment: Basophil dustmite activation: histamine release assay; format: cell-based; settings: basophils, dust mite activation
Protocol: as §2

[16] = tested on: basophil cells (human peripheral blood); experiment: Basophil ionomycin activation: histamine release assay; format: cell-based; settings: basophils, ionomycin activation, histamine release; read-out: Basophils Ionomycin Histamine IC50
Outline: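 Dextran-sedimented leukocytes from peripheral blood of dust-mite-allergic human donors were incubated with compound (8 concentrations, 0.5% DMSO, triplicate) and then stimulated with 2 μM ionomycin stock (20 μl added) for 30 min at 37° C. Histamine released into the supernatant was measured by ELISA.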

[17] = Low Density CHMC, ionomycin activation, tryptase release, read-out: CHMC Ionomycin Tryptase IC50

| IC50 ([2]; Low Density, read-out: CHMC anti-IgE Tryptase) [nM] | IC50 [3] [nM] | IC50 [4] [nM] | IC50 [5] [nM] | IC50 [6] [nM] | IC50 [8] [nM] | IC50 ([9]; Low Density, read-out: CHMC Ionomycin Tryptase) [nM] | IC50 [10] [nM] | IC50 [11] [nM] | IC50 [13] [nM] | IC50 ([2]; Low Density CHMC, anti-IgE activation, tryptase release, read-out: CHMC anti-IgE Tryptase IC50) [nM] | IC50 [14] [nM] | IC50 [16] [nM] | Structure (SMILES) | phosphorylation of proteins downstream of LYN kinase but not Syk kinase [1] | IC50 [7] [nM] | IC50 [12] [nM] | IC50 [15] [nM] | IC50 [9, 17] [nM] |
| --- | --- | --- | --- | --- | --- | --- | --- | --- | --- | --- | --- | --- | --- | --- | --- | --- | --- | --- |
| – | – | – | – | – | – | – | – | – | – | – | – | – | CC(C)(C)n1nc(-c2ccc(Cl)cc2)c2c(N)ncnc21 [PP2, reference compound] | inhibition of phosphorylation of proteins downstream of LYN kinase but not Syk kinase | – | – | – | – |
| 132 | 151 | 2250 | 577 | 586 | 642 | > 10000 | 1780 | 2170 | 118 | – | – | – | Cc1cc(Nc2ncc(F)c(Nc3cccc(O)c3)n2)cc(Cl)c1O [Compound R940233] | – | > 4330 | > 4330 | – | – |
| – | – | 1880 | 1110 | 1330 | 1230 | – | > 10000 | 3270 | – | 138 | 270 | > 10000 | O=C(NCCO)c1cc2cc(Nc3ncc(F)c(Nc4cccc(O)c4)n3)ccc2o1 [Compound R926497] | – | – | – | 205 | > 10000 |

| Structure (SMILES) | IC50 ([2]; Low Density, read-out: CHMC anti-IgE Tryptase) [nM] | IC50 [3] [nM] | IC50 [4] [nM] | IC50 [5] [nM] | IC50 [6] [nM] | IC50 [8] [nM] | IC50 ([9]; Low Density, read-out: CHMC Ionomycin Tryptase) [nM] | IC50 [10] [nM] | IC50 [11] [nM] | IC50 [13] [nM] | IC50 ([2]; Low Density CHMC, anti-IgE activation, tryptase release, read-out: CHMC anti-IgE Tryptase IC50) [nM] | IC50 [14] [nM] | IC50 [16] [nM] | phosphorylation of proteins downstream of LYN kinase but not Syk kinase [1] | IC50 [7] [nM] | IC50 [12] [nM] | IC50 [15] [nM] | IC50 [9, 17] [nM] |
| --- | --- | --- | --- | --- | --- | --- | --- | --- | --- | --- | --- | --- | --- | --- | --- | --- | --- | --- |
| Fc1cnc(Nc2cccc(OCCN3CCOCC3)c2)nc1Nc1ccc2c(c1)OCCO2 [Compound R926511] | – | – | – | – | – | – | – | > 2000 | – | – | – | – | – | – | > 4330 | > 4330 | – | > 10000 |
